In patent publication US9326968B2, “Composition for enhancing immunity containing compounds represented by chemical formulas 1-8 or sophora flavescens extract as active ingredient” (Korea Research Institute of Bioscience and Biotechnology, priority 2010, dated 2016):

Experiments:
IRF3 [1] = test: IRF3 activity/phosphorylation in THP-1 cells, western blot; assay type: cell-based, human; details: treated with the compound only
Method: First, in order to investigate the effects of the extract in activation of IRF3, THP-1 cells were prepared at a density of 1.5×10^6 cells/well and treated with 30 μg/ml of S. flavescens extract, 60 μg/ml of water fraction thereof, or 30 μg/ml of chloroform fraction thereof for 2 hours. After 2 hours of treatment with the extract and fractions thereof, the cells were put into tubes and pelleted down through centrifugation to remove culture media. Then the cell pellet was washed with PBS once and treated with cell lysis buffer to isolate total protein extracts, which were then subjected to western blot analysis. In this analysis, IRF3 protein level was measured.

IFN-β = IFN-β expression in THP-1 cells, Real-time PCR; assay type: cell-based, human; details: 10 μM, 30 μM, and 60 μM for 6 hours
Method: After 6 hours of treatment, the cells were placed in tubes and pelleted down through centrifugation to remove cell media, which was then washed with PBS once and RNA was extracted from the washed cells by using RNeasy Mini Elute Cleanup kit. The concentration and purity of RNA extract was measured by using 2100 Bioanalyzer system (Agilent Technologies), and cDNA was synthesized from this RNA extract by using Taqman reverse transcription reagents kit (Applied Biosystems). The expression level of IFN-β was measured by running Real-time PCR using SYBR Green PCR master mix kit (Applied Biosystem).
Subsequently, in order to investigate the effect of compound of Formula 1 in expression of IFN-β which is induced by IRF3 activation, the compound of Formula 1 was added to the cell group at a concentration of 10 μM, 30 μM, and 60 μM for 6 hours and then the expression level of IFNβ was measured.

IRF3 [2] = test: IRF3 activation in THP-1 cells treated with poly (I:C), western blot; assay type: cell-based, human; details: 30 μM and 60 μM for 1 hour, then 50 μg/ml poly (I:C) for 3 hours, compared to poly (I:C) only
Method: First, in order to investigate the effect of the extract in IRF3 activation, THP-1 cells were prepared at a density of 1.5×10^6 cells/well, and treated with the compound of Formula 1 at a concentration of 30 μM and 60 μM for 1 hour and then treated with 50 μg/ml of poly (I:C) for 3 hours. After 3 hours of treatment, the cells were placed in a tube and pelleted down through centrifugation to remove cell media, which was then washed with PBS once and mixed with NE-PER Nuclear extraction reagent (Thermo scientific) and cell lysis buffer to isolate nuclear extract and total protein extract. The isolated extracts were subject to western blot analysis.

[3] = tested on: rotavirus KJ56-1 (bovine rotavirus, G8P[7]); test: Proliferation of rotavirus KJ56-1 in TF-104 cells; assay type: cell-based; details: MOI 0.01, 30 μM, 3 days
Method: In order to investigate the inhibitory effects of the above-disclosed compounds represented by Formulas 1 to 8 against proliferation of rotavirus, the following experiment was conducted using the fetal rhesus monkey kidney cell line TF-104. First, TF-104 cells (1×10^5 cells/well) were treated with rotavirus KJ56-1 (bovine rotavirus, […][7]) with multiplicity of infection (MOI) of 0.01 for 1 hour. Then the supernatant was removed from the cell pellet, and the pelleted cells were added to EMEM medium mixed with 1 μg/ml of trypsin and compounds of Formulas 1 to 8 and cultured at 37° C. for 3 days.

rotavirus 205-1 = test: Proliferation of rotavirus 205-1 in TF-104 cells; assay type: cell-based, porcine rotavirus; details: 30 μM
TRIF-CFP = test: Distribution of TRIF-CFP in transfected THP-1 cells treated with poly (I:C), confocal microscope; assay type: cell-based, human; details: THP-1 cells transfected with pcDNA3-TRIF-CFP, 30 μM, then 50 μg/ml poly (I:C) for 1 hour
Method: In order to monitor the changes in distribution of TRIF-CFP in vivo by the compound of Formula 1, THP-1 cells (1×10^6 cells/well) were transfected with 0.5 μg of pcDNA3-TRIF-CFP plasmid by using Nucleofector kit V (Lonza, Switzerland) and cultured at 37° C. for 2 days. Then, the transfected cells were placed in 8-chamber slide coated with Poly-L-Lysine and treated with the compound of Formula 1 at 30 μM, and treated with 50 μg/ml of poly (I:C) for 1 hour. After removing the supernatant, the cells were washed with PBS three times, and fixed onto the slide by applying 200 μl of 4% paraformaldehyde and slowfade gold antifade reagent. Then the changes in the distribution of TRIF-CFP were monitored under carl zeins LSM 510 META confocal microscope.

NFkB p65 = test: TLR-3 signal pathway western blot, nuclear extract: NFkB p65; assay type: cell-based, human; details: THP-1 cells, 30 μM, 60 μM, and 100 μM 1 hour prior to 50 μg/ml poly (I:C) for 3 hours; concentration-dependent
Method: (§1) First, THP-1 cells were prepared at a density of 1.5×10^6 cells/well and cultured in culture medium RPMI 1640 which lacks FBS for 12 hours. Then, the cells were treated with the compound of Formula 1 at a concentration of 30 μM, 60 μM, and 100 μM 1 hour prior to the poly(I:C) treatment, and then treated with 50 μg/ml of poly (I:C) for 3 hours. After 3 hours of treatment, the cells were placed in a tube and pelleted down by centrifugation to remove cell media, washed with PBS once. Subsequently, the cells were added with NE-PER Nuclear extraction reagents (Thermo scientific) and cell lysis buffer to isolate nuclear extract and total protein extract which were then subject to western blot analysis. For the nuclear extract, the level of NFkB and c-Fos was monitored, and for the total protein extract, the level of MAPKs, IKK isoforms, and IRF3 was measured. […] Furthermore, the phosphorylation of MAPKs, i.e., ERK, JNK, and p-38 which act before AP-1 activation in the pathway was reduced by the compound of Formula 1 in a concentration-dependent manner (FIG. 9e).

c-Fos = test: TLR-3 signal pathway western blot, nuclear extract: c-Fos; assay type: cell-based, human; details: THP-1 cells, 30 μM, 60 μM, and 100 μM 1 hour prior to 50 μg/ml poly (I:C) for 3 hours; concentration-dependent
Method: as §1

IKK = test: TLR-3 signal pathway western blot, total protein: IKK phosphorylation; assay type: cell-based, human; details: THP-1 cells, 30 μM, 60 μM, and 100 μM 1 hour prior to 50 μg/ml poly (I:C) for 3 hours; concentration-dependent
Method: as §1

IkB = test: TLR-3 signal pathway western blot, total protein: IkB phosphorylation; assay type: cell-based, human; details: THP-1 cells, 30 μM, 60 μM, and 100 μM 1 hour prior to 50 μg/ml poly (I:C) for 3 hours; concentration-dependent
Method: as §1

ERK = test: TLR-3 signal pathway western blot, total protein: ERK phosphorylation; assay type: cell-based, human; details: THP-1 cells, 30 μM, 60 μM, and 100 μM 1 hour prior to 50 μg/ml poly (I:C) for 3 hours; concentration-dependent
Method: as §1

JNK = test: TLR-3 signal pathway western blot, total protein: JNK phosphorylation; assay type: cell-based, human; details: THP-1 cells, 30 μM, 60 μM, and 100 μM 1 hour prior to 50 μg/ml poly (I:C) for 3 hours; concentration-dependent
Method: as §1

p-38 = test: TLR-3 signal pathway western blot, total protein: p-38 phosphorylation; assay type: cell-based, human; details: THP-1 cells, 30 μM, 60 μM, and 100 μM 1 hour prior to 50 μg/ml poly (I:C) for 3 hours; concentration-dependent
Method: as §1

## C=C(C)C(CCC(C)(C)O)Cc1c(O)cc(O)c2c1OC(c1ccc(O)cc1O)CC2=O (stereo not shown) [Formula 1, 5,7,2′,4′-trihydroxy-8-(5-hydroxy-2-isoprenyl-5-methyl-hexyl-)flavanone]
IRF3 [1]
  IRF3 activity: concentration-dependent increased
IFN-β
  IFN-β expression: concentration-dependent increase
IRF3 [2]
  IRF3 activation: higher level of IRF3 activation
[3]
  proliferation of rotavirus KJ56-1: significantly inhibited
Rotavirus 205-1
  proliferation of rotavirus 205-1: significantly inhibited
TRIF-CFP
  distribution of TRIF-CFP: even distribution of TRIF-CFP in the cytoplasm
NFkB p65
  transport of NFkB p65 to nucleus: reduced
c-Fos
  transport of c-Fos to nucleus: reduced
IKK
  phosphorylation of IKK: reduced
IkB
  phosphorylation of IkB: reduced
ERK
  phosphorylation of ERK: reduced
JNK
  phosphorylation of JNK: reduced
p-38
  phosphorylation of p-38: reduced
